Results as given in patent publication US8834840B1, “Magnetic resonance imaging of self-assembled biomaterial scaffolds” (Northwestern University, priority 2006, dated 2014).

Assay: T1 measurements / MR imaging of PA gels at 9.4 T
Format: physicochemical
Conditions: gel of 0.75 wt. % filler PA 1, agent mixed in at 0.1 mM Gd(III) (1 alone without Gd(III)), spin-echo
Method: FIG. 4 depicts results of T1 study of PA gels and mixed PA gels. The concentration of Gd(III) is 0.1 mM in all samples except a and the concentration of filler PA is […] in each case (all samples form self-supporting gels): a corresponds to compound 1 alone and is used as a standard, b refers to 1 mixed with DTPA, c refers to 1 mixed with compound 2, d refers to 1 mixed with compound 3, e through j are mixed with compound 3 and their structures are depicted above. Error bars represent one standard deviation.
Mixing PACAs 2 or 3 with filler PA 1 could be successfully imaged by MR (FIG. 3). The gels are homogeneous in image intensity throughout the samples, which implies uniform mixing of the PACA molecules within the filler PA at MR resolution. If heterogeneous mixing of PAs occur on a large enough scale, domains of bright and dark intensity would be observed. […] The gels were made using a 0.75 wt. % of filler PA. The PACA molecule was mixed into this solution before gelling as was the DTPA. Images were acquired using a spin-echo pulse sequence with TR 750 ms, TC 12 ms, slice thickness of 1 mm, FOV of 2 cm, at 9.4 T on an Oxford superconducting magnet and Bruker software. The T1 of these gels were measured at 3.03±0.05 s, 1.89±0.06 s, 1.08±0.06 s, and 2.81±0.05 s, respectively, the faster T1's resulting in higher contrast.
T1 Measurements. […]

O=C(O)CN(CCN(CC(=O)O)CC(=O)O)CCN(CC(=O)O)CC(=O)O [DTPA, diethylenetriaminepentaacetate]
T1 of gels: 2.81 ± 0.05 s
